From ChEMBL document CHEMBL4385660, “5-Chloro-2-thiophenyl-1,2,3-triazolylmethyldihydroquinolines as dual inhibitors of Mycobacterium tuberculosis and influenza virus: Synthesis and evaluation” (Bioorg Med Chem Lett, 2019)
Values after ≈ are worked out from the molar mass of the structure shown.

Legend:
[1] = system: Mycobacterium tuberculosis; assay: Antimycobacterial against Mycobacterium tuberculosis; assay type: functional
[2] = system: Mycobacterium tuberculosis; assay: Antimycobacterial against Mycobacterium tuberculosis H37Rv incubated for 7 days by MABA assay; assay type: functional; details: 168 h
Influenza A virus = assay: Antiviral activity against Influenza A virus (A/Puerto Rico/8/1934(H1N1)) infected in MDCK cells assessed as reduction in virus titer using cells pre-treated with compound followed by virus infection for 24 hrs by hemagglutination test; assay type: functional, organism-based
[3] = Cytotoxicity in MDCK cells assessed as reduction in cell viability incubated for 48 hrs by MTT assay; assay type: cell-based, Canis lupus familiaris; details: dog
[4] = Selectivity index, ratio of CC50 for cytotoxicity in MDCK cells to IC50 for antiviral activity against Influenza A virus (A/Puerto Rico/8/1934(H1N1)) infected in MDCK cells; assay type: toxicity, cell-based; details: dog, read-out: Ratio CC50/IC50

| SMILES | MIC [1] | MIC [2] | IC50 (Influenza A virus) | CC50 at 48 h [3] | selectivity ratio [4] |
| --- | --- | --- | --- | --- | --- |
| CN(C)CCc1ccc(-c2cc3cc(Br)ccc3nc2OCc2cccc3ccccc23)cc1 | 0.43 mg/L (≈ 0.841 µM) | – | – | – | – |
| Fc1ccc(-c2cn(CC3=C(Cl)c4ccc(-c5cccs5)nc4CC3)nn2)cc1 | – | 12.5 mg/L (≈ 29.6 µM) | 80 mg/L (≈ 189 µM) | 100 mg/L (≈ 236 µM) | 1 |
| O=C1c2ccccc2C(=O)N1Cc1cn(CC2=C(Cl)c3ccc(-c4cccs4)nc3CC2)nn1 | – | 25 mg/L (≈ 51.2 µM) | 200 mg/L (≈ 410 µM) | > 300 mg/L | 2 |
| ClC1=C(Cn2cc(C3CC3)nn2)CCc2nc(-c3cccs3)ccc21 | – | 6.25 mg/L (≈ 16.9 µM) | > 300 mg/L | > 300 mg/L | 1 |
| FC(F)(F)c1ccccc1-c1cn(CC2=C(Cl)c3ccc(-c4cccs4)nc3CC2)nn1 | – | 12.5 mg/L (≈ 26.4 µM) | 160 mg/L (≈ 338 µM) | > 300 mg/L | 2 |
| Fc1ccc(-c2cn(CC3=C(Cl)c4ccc(-c5cccs5)nc4CC3)nn2)c(F)c1 | – | 25 mg/L (≈ 56.7 µM) | 165 mg/L (≈ 374 µM) | 188 mg/L (≈ 426 µM) | 1 |
| FC(F)(F)c1cc(-c2cn(CC3=C(Cl)c4ccc(-c5cccs5)nc4CC3)nn2)cc(C(F)(F)F)c1 | – | 25 mg/L (≈ 46.2 µM) | > 30 mg/L | 35 mg/L (≈ 64.7 µM) | 1 |
| CC(C)(C)c1ccc(-c2cn(CC3=C(Cl)c4ccc(-c5cccs5)nc4CC3)nn2)cc1 | – | 3.12 mg/L (≈ 6.77 µM) | 64 mg/L (≈ 139 µM) | 172 mg/L (≈ 373 µM) | 3 |
| CC(C)(C)c1nn(-c2cc(Cl)cc(Cl)c2OCc2cn(CC3=C(Cl)c4ccc(-c5cccs5)nc4CC3)nn2)c(=O)o1 | – | 25 mg/L (≈ 38.8 µM) | > 300 mg/L | > 300 mg/L | 1 |
| CCCCCc1cn(CC2=C(Cl)c3ccc(-c4cccs4)nc3CC2)nn1 | – | 6.25 mg/L (≈ 15.7 µM) | 17 mg/L (≈ 42.6 µM) | 50 mg/L (≈ 125 µM) | 3 |
| ClC1=C(Cn2cc(-c3ccsc3)nn2)CCc2nc(-c3cccs3)ccc21 | – | 25 mg/L (≈ 60.8 µM) | 195 mg/L (≈ 475 µM) | > 300 mg/L | 15 |
| O=[N+]([O-])c1ccc(-c2cn(CC3=C(Cl)c4ccc(-c5cccs5)nc4CC3)nn2)cc1 | – | 12.5 mg/L (≈ 27.8 µM) | > 30 mg/L | 40 mg/L (≈ 88.9 µM) | 1 |
| CN(C)Cc1ccc(-c2cc3cc(Br)ccc3nc2OCc2ccncc2)cc1 | 0.43 mg/L (≈ 0.959 µM) | – | – | – | – |
| ClC1=C(Cn2cc(-c3ccc(Cl)c(Cl)c3)nn2)CCc2nc(-c3cccs3)ccc21 | – | 25 mg/L (≈ 52.8 µM) | 26 mg/L (≈ 54.9 µM) | > 300 mg/L | 12 |
| ClC1=C(Cn2cc(-c3cc4ccccc4c4ccccc34)nn2)CCc2nc(-c3cccs3)ccc21 | – | 25 mg/L (≈ 49.5 µM) | > 300 mg/L | > 300 mg/L | 1 |
| COc1ccc(-c2cn(CC3=C(Cl)c4ccc(-c5cccs5)nc4CC3)nn2)cc1 | – | 25 mg/L (≈ 57.5 µM) | 160 mg/L (≈ 368 µM) | > 300 mg/L | 2 |
| FC(F)(F)Oc1ccc(-c2cn(CC3=C(Cl)c4ccc(-c5cccs5)nc4CC3)nn2)cc1 | – | 25 mg/L (≈ 51.1 µM) | 65 mg/L (≈ 133 µM) | > 300 mg/L | 5 |
| O=C(O)c1cn(C2CC2)c2cc(N3CCNCC3)c(F)cc2c1=O [CIPROFLOXACIN] | – | 1.56 mg/L (≈ 4.71 µM) | – | – | – |
| CC[C@@H](CO)NCCN[C@@H](CC)CO [ETHAMBUTOL] | – | 3.13 mg/L (≈ 15.3 µM) | – | – | – |
| NNC(=O)c1ccncc1 [ISONIAZID] | – | 0.1 mg/L (≈ 0.729 µM) | – | – | – |
| CCC(CC)O[C@@H]1C=C(C(=O)O)C[C@H](N)[C@H]1NC(C)=O [OSELTAMIVIR CARBOXYLATE] | – | – | 0.06 mg/L (≈ 0.211 µM) | > 30 mg/L | > 500 |
| CO[C@H]1/C=C/O[C@@]2(C)Oc3c(C)c(O)c4c(O)c(c(/C=N/N5CCN(C)CC5)c(O)c4c3C2=O)NC(=O)/C(C)=C\C=C\[C@H](C)[C@H](O)[C@@H](C)[C@@H](O)[C@@H](C)[C@H](OC(C)=O)[C@@H]1C [RIFAMPIN] | – | 0.2 mg/L (≈ 0.243 µM) | – | – | – |
| CC(N)C12CC3CC(CC(C3)C1)C2 (configuration not stated) [RIMANTADINE] | – | – | 10 mg/L (≈ 55.8 µM) | 62 mg/L (≈ 346 µM) | 6 |
